According to patent US20080107614A1, “PEPTIDE-BASED CONDITIONERS” (priority 2006, published 2008):
Ends that are not written are not given here. * marks the point of attachment. Biotin = O=C1N[C@H]2[C@H](CS[C@H]2CCCCC(=O)*)N1

Tests used:
[1] = ELISA of phage-peptide clones on pig skin (specificity control); type: binding; conditions: for Pig Skin A450: phage ELISA, anti-M13 HRP conjugate, mean of at least three replicates
Experimental: (§1) Enzyme-linked immunosorbent assay (ELISA) was used to evaluate the hair-binding specificity of selected phage-peptide clones. Phage-peptide clones identified in Examples 1 and 2 along with a randomly chosen control G-F9, KHGPDLLRSAPR (given as SEQ ID NO:63) were amplified. More than […] (plaque forming units) phage were added to pre-blocked hair surfaces.
(§2) A unique hair or pig skin-bottom 96-well apparatus was created by applying one layer of PARAFILM® under the top 96-well block of a Minifold I Dot-Blot System (Schleicher & Schuell, Inc., Keene, N.H.), adding hair or a layer of hairless pig skin on top of the PARAFILM® cover, and then tightening the apparatus. For each clone to be tested, the hair-covered well was incubated for 1 h at room temperature with 200 μL of blocking buffer, consisting of 2% non-fat dry milk (Schleicher & Schuell, Inc.) in TBS. A second Minifold system with pig skin at the bottom of the wells was treated with blocking buffer simultaneously to serve as a control. The blocking buffer was removed by inverting the systems and blotting them dry with paper towels. The systems were rinsed 6 times with wash buffer consisting of TBST-0.05%. The wells were filled with 200 μL of TBST-0.5% containing 1 mg/mL BSA and then 10 μL (over […]) of purified phage stock was added to each well. The samples were incubated at 37° C. for 15 min with slow shaking. The non-binding phage was removed by washing the wells 10 to 20 times with TBST-0.5%. Then, 100 μL of horseradish peroxidase/anti-M13 antibody conjugate (Amersham USA, Piscataway, N.J.), diluted 1:500 in the blocking buffer, was added to each well and incubated for 1 h at room temperature. The conjugate solution was removed and the wells were washed 6 times with TBST-0.05%. TMB (3,3′,5,5′-tetramethylbenzidine) substrate (200 μL), obtained from Pierce Biotechnology (Rockford, Ill.) was added to each well and the color was allowed to develop for between 5 to 30 min, typically for 10 min, at room temperature. Then, stop solution (200 μL of 2 M H2SO4) was added to each well and the solution was transferred to a 96-well plate and the A450 was measured using a microplate spectrophotometer (Molecular Devices, Sunnyvale, Calif.). The resulting absorbance values, reported as the mean of at least three replicates, and the standard error of the mean (SEM) are given in Table 10.

[2] = ELISA of phage-peptide clones on hair; type: binding, human; conditions: for Hair A450: phage ELISA, anti-M13 HRP conjugate, mean of at least three replicates
Experimental: as §1, §2

[3] = Titer-based assay of hair-binding phage clones; set-up: species or system human; conditions: output pfu retained by 10 mg of normal hair; input 10^14 pfu; acid-eluted phage
Experimental: Phage clones displaying specific peptides were used for comparing the binding characteristics of different peptide sequences. A titer-based assay was used to quantify the phage binding. This assay measures the output pfu retained by 10 mg of hair surfaces, having a signal to noise ratio of 10^3 to 10^4. The input for all the phage clones was 10^14 pfu. It should be emphasized that this assay measures the peptide-expressing phage particle, rather than peptide binding.
Normal hairs were cut into 0.5 cm lengths and 10 mg of the cut hair was placed in each well of a 96-well filter plate (Qiagen). Then, the wells were filled with blocking buffer containing 1 mg/mL BSA in TBST-0.5% and incubated for 1 h at 4° C. The hairs were washed 5 times with TBST-0.5%. The wells were then filled with 1 mL of TBST-0.5% containing 1 mg/mL BSA and then purified phage clones (10^14 pfu) were added to each well. The hair samples were incubated for 15 min at room temperature and then washed 10 times with TBST-0.5%. The hairs were transferred to a clean well and 1.0 mL of a non-specific elution buffer, consisting of 1 mg/mL BSA in 0.2 M Glycine-HCl at pH 2.2, was added to each well. The samples were incubated for 10 min and then 160 μL of neutralization buffer (1 M Tris-HCl, pH 9.2) was added to each well. The eluted phage from each well were transferred to a new tube for titering and sequencing analysis.
To titer the bound phage, the eluted phage was diluted with SM buffer to prepare 10-fold serial dilutions of 10^1 to 10^8. A 10 μL aliquot of each dilution was incubated with 200 μL of mid-log phase E. coli ER2738 (New England BioLabs), and grown in LB medium for 20 min and then mixed with 3 mL of agarose top (LB medium with 5 mM MgCl2, and 0.7% agarose) at 45° C. This mixture was spread onto a LB medium/IPTG/Xgal (5-bromo-4-chloro-3-indolyl-β-D-galactopyranoside) plate (LB medium with 15 g/L agar, 0.05 g/L IPTG, and 0.04 g/L Xgal) and incubated overnight at 37° C.

[4] = ELISA-based MB50 determination on hair; type: binding, human; conditions: for EC50: biotinylated peptide; for binding affinity for respective substrate (hair): in words, from MB50
Description: (§3) The term “MB50” refers to the concentration of the binding peptide that gives a signal that is 50% of the maximum signal obtained in an ELISA-based binding assay as described herein. The MB50 provides an indication of the strength of the binding interaction or affinity of the components of the complex. The lower the value of MB50, the stronger the interaction of the peptide with its corresponding substrate.
(§4) Hair-binding and skin-binding peptides were synthesized by SynPep Inc. (Dublin, Calif.). The peptides were biotinylated by adding a biotinylated lysine residue at the C-terminus of the amino acid binding sequences for detection purposes and an amidated cysteine was added to the C-terminus of the sequence.
(§5) For hair samples, the procedure used was as follows. The setup of the surface specific 96-well system used was the same as that described in Example 5. Briefly, the 96-wells with hair or pig skin surfaces were blocked with blocking buffer (SUPERBLOCK™ from Pierce Chemical Co., Rockford, Ill.) at room temperature for 1 h, followed by six washes with TBST-0.5%, 2 min each, at room temperature. Various concentrations of biotinylated, binding peptide were added to each well, incubated for 15 min at 37° C., and washed six times with TBST-0.5%, 2 min each, at room temperature. Then, streptavidin-horseradish peroxidase (HRP) conjugate (Pierce Chemical Co.) was added to each well (1.0 μg per well), and incubated for 1 h at room temperature. After the incubation, the wells were washed six times with TBST-0.5%, 2 min each at room temperature. Finally, the color development and the measurement were performed as described in Example 5.
(§6) The results were plotted as A450 versus the concentration of peptide using GraphPad Prism 4.0 (GraphPad Software, Inc., San Diego, Calif.).

[5] = ELISA-based MB50 determination on pig skin; type: binding; conditions: for EC50: substrate Pig Skin, biotinylated peptide; for binding affinity for skin: in words, from MB50
Description: as §3, §4, §5
For the measurement of MB50 of the peptide-skin complexes, the following procedure was used. First, the pigskin was treated to block the endogenous biotin in the skin. This was done by adding streptavidin to the blocking buffer. After blocking the pigskin sample, the skin was treated with D-biotin to block the excess streptavidin binding sites. The remaining steps were identical to those used for the hair samples.
as §6

[6] = Peptide competition ELISA with D21 phage; type: binding, human
Experimental: The purpose of this Example was to test the peptide binding site specificity and affinity of the hair-binding peptide D21 using a competition ELISA. The ELISA assay only detects phage particles that remain bound to the hair surface.
The synthetic hair-binding peptide D21, given as SEQ ID NO:46 was synthesized by SynPep (Dublin, Calif.). As a control, an unrelated synthetic skin-binding peptide (SK-1), given as SEQ ID NO:61, was added to the system. The experimental conditions were similar to those used in the ELISA method described in Example 5. Briefly, 100 μL of Binding Buffer (1×TBS with 0.1% Tween® 20 and 1 mg/mL BSA) and 10^11 pfu of the pure D21 phage particles were added to each well of the 96-well filter plate, which contained a sample of normal hair. The synthetic peptide (100 μg) was added to each well (corresponding to concentration of 0.8 mM). The reactions were carried out at room temperature for 1 h with gentle shaking, followed by five washes with TBST-0.5%. The remaining steps were identical to the those used in the ELISA method described in Example 5. Each individual ELISA test was performed in triplicate; the values in Table 11 are the means of the triplicate determinations.

[7] = in words, from the data in Table 10

Row | Substance | Pig Skin A450 [1] | Hair A450 [2] | Phage Titer [3] | other results
1 | EQISGSLVAAPW [Clone A5] | 0.256 | 0.431 | – | –
2 | MPLYYLQ (displayed on phage; Hair-binding peptide) [Clone E] | – | – | 1.70 × 10^5 | –
3 | I-B5 (TPPELLHGDPRS; Hair-binding peptide) [listing 1 of 2 here] | – | – | – | EC50 ([4]; substrate Normal and Bleached Hair): 300 nM; EC50 [5]: > 100000 nM
4 | MPKYYLQ (displayed on phage; Hair-binding peptide) [Clone J] | – | – | 1.24 × 10^6 | –
5 | KHGPDLLRSAPR [Clone G-F9, reference compound] | −0.137 | 0.074 | – | –
6 | GPHDTSSGGVRPNLHHTSKKEKRENRKVPFYSHSVTSRGNV [Clone D5] | 0.104 | 0.652 | – | –
7 | KHPTYRQ (displayed on phage; Hair-binding peptide) [Clone H] | – | – | 1.30 × 10^6 | –
8 | TPFHSPENAPGS [SK-1] | – | – | – | binding affinity for skin [5]: high; EC50 [5]: 700 nM
9 | RTNAADHPAAVT [Peptide D21] | 0.04 | 1.051 | – | affinity for pig skin [1, 7]: very low; binding affinity for respective substrate (hair) [4]: high; EC50 ([4]; substrate Normal Hair): 2000 nM; competition with the phage clone D21 for the same binding sites on the hair surface ([6]; in words): does compete; EC50 [5]: 40000 nM; binding affinity for hair [2, 7]: very strong; selectivity for hair compared to pig skin [2, 7]: highest
10 | MHAHSIA (displayed on phage; Hair-binding peptide) [Clone A36] | 0.173 | 0.585 | – | –
11 | TDMQAPTKSYSN [Clone C5] | 0.047 | 0.548 | – | –
12 | Binding Peptide D21: biotinylated hair-binding peptide D21 (binding sequence SEQ ID NO:46) (RTNAADHPAAVTK(Biotin)C-NH2; N-terminus assumed; SMILES CC(C)[C@H](NC(=O)[C@H](C)NC(=O)[C@H](C)NC(=O)[C@@H]1CCCN1C(=O)[C@H](Cc1c[nH]cn1)NC(=O)[C@H](CC(=O)O)NC(=O)[C@H](C)NC(=O)[C@H](C)NC(=O)[C@H](CC(N)=O)NC(=O)[C@@H](NC(=O)[C@@H](N)CCCNC(=N)N)[C@@H](C)O)C(=O)N[C@H](C(=O)N[C@@H](CCCCNC(=O)CCCC[C@@H]1SC[C@@H]2NC(=O)N[C@@H]21)C(=O)N[C@@H](CS)C(N)=O)[C@@H](C)O) | – | – | – | binding affinity for skin [5]: relatively low
13 | HPVWPAI (displayed on phage; Hair-binding peptide) [Clone D] | – | – | 8.20 × 10^4 | –
14 | NSPGYQADSVAIG [Clone D30] | 0.287 | 0.414 | – | –
15 | HIKPPTR (displayed on phage; Hair-binding peptide) [Clone B] | – | – | 1.21 × 10^5 | –
16 | GPHDTSSGGVRPNLHHTSKKEKRENRKVPFYSHSVTSRGNV [Clone G] | – | – | 1.67 × 10^8 | –
17 | RTNAADHPAAVT [Clone D21] | – | – | – | A450 ([6]; 10^11 pfu D21 phage on normal hair, synthetic peptide 100 μg per well (0.8 mM) where added, mean of triplicate): 1.878
18 | TAATTSP (displayed on phage; Hair-binding peptide) [Clone B1] | 0.127 | 0.42 | – | –
19 | LGIPQNL (displayed on phage; Hair-binding peptide) [Clone D39] | 0.086 | 0.685 | – | –
20 | HLTVPWRGGGSAVPFYSHSQITLPNH [Clone F] | – | – | 1.11 × 10^6 | –
21 | TPALDGLRQPLR [Clone C18] | 0.132 | 0.34 | – | –
22 | AKTHKHPAPSYS [Clone C13] | 0.024 | 0.375 | – | –
23 | I-B5 (TPPELLHGDPRS; Hair-binding peptide) [listing 2 of 2 here] | – | – | – | binding affinity for respective substrate (hair) [4]: high; binding affinity for skin [5]: relatively low
24 | SLNWVTIPGPKI [Clone C10] | 0.032 | 0.542 | – | –
25 | LPRIANTWSPS [Clone F35] | – | – | – | binding affinity for respective substrate (hair) [4]: high; EC50 ([4]; substrate Bleached Hair): 3000 nM
26 | DLHTVYH (displayed on phage; Hair-binding peptide) [Clone A] | – | – | 7.50 × 10^4 | –
